Among the data in patent publication US9365523B2, “Imidazolyl amide compounds and uses related thereto” (priority 2011, dated 2016) are EC50 and MeV inhibitory activity values, retold here.

One assay deals with MeV-Alaska. The assay is described as follows: Antiviral activity of compound analogs against MeV-Alaska (tables 1-5). The assay is classed as cell-based, measles virus. As to conditions: Measles morbillivirus; Table 5.
For orientation: EC50 means the concentration needed to bring the measured effect to its halfway point. Low readings indicate higher potency in that assay, high ones lower potency in that assay. The molecule `COc1ccc(-n2c([S+]([O-])C(C)C(=O)Nc3ccc(C)cc3Cl)nc3ccccc32)cc1` (stereo not drawn) [Compound 125] registered an EC50 of 1800 nM.
In turn, `CCOC(=O)c1ccc2[nH]c(SC(C)C(=O)Nc3ccc(C)cc3Cl)nc2c1` (stereo not drawn) [Compound 126] returned an EC50 of more than 75000 nM.
The same measure, in the same setting: the value for `COc1ccc(Cn2c(CCC(=O)Nc3ccc(Cl)cc3Cl)nc3ccccc32)cc1` [Compound 160] was more than 75000 nM.
On the same count and under the same terms, then `COc1ccc(-n2c(SCC(=O)Nc3ncc(Cl)cc3Cl)nc3ccccc32)cc1` [Compound 155], with 440 nM; and `COc1ccc(Cn2c(CCC(=O)Nc3ccc(C)cc3Cl)nc3ccccc32)cc1` [Compound 137], with more than 75000 nM.
On the same count and under the same terms, then `COc1ccc(-n2c(SC(C)C(=O)Nc3ccc(C)cc3Cl)nc3cccnc32)cc1` (stereo not drawn) [Compound 154], with 1600 nM.
For `Cc1ccc(N(Cc2ccc(F)cc2)C(=O)C(C)Sc2nc(-c3ccccc3)c(-c3ccccc3)n2Cc2ccc(F)cc2)c(Cl)c1` (stereo not drawn) [Compound 167], the EC50 is more than 75000 nM.
Same read-out and setting: the value for `Cc1ccc(NC(=O)C(C)Sc2nc3cccnc3n2-c2ccccc2)c(Cl)c1` (stereo not drawn) [Compound 146] was 1200 nM.
Same read-out and setting: the value for `Cc1cccc(-n2c(SCCNc3ccccc3)nc3ccccc32)c1` [Compound 172] was more than 75000 nM; that for `Cc1ccc(NC(=O)C(C)(C)Sc2nc3ccccc3n2-c2ccccc2)c(Cl)c1` [Compound 170] was more than 75000 nM.
Molecule `COc1ccc(-n2c(CCC(=O)Nc3ccc(C)cc3Cl)nc3ccccc32)cc1` [Compound 159] gave an EC50 of more than 150000 nM.
Turning to `CCOC(=O)c1ccc2[nH]c(SC(C)C(=O)Nc3ncc(Cl)cc3Cl)nc2c1` (stereo not drawn) [Compound 158], the EC50 was more than 75000 nM.
Still for that read-out and setting: then `CCC(Sc1nc2ccccc2n1-c1ccc(OC)cc1)C(=O)Nc1ncc(Cl)cc1Cl` (stereo not drawn) [Compound 131], with 12200 nM; and `COc1ccc(Cn2c(NC(C)C(=O)Nc3ccc(C)cc3Cl)nc3ccccc32)cc1` (stereo not drawn) [Compound 127], with more than 75000 nM.
On the same count and under the same terms, then `COc1ccc(-n2ccnc2SC(C)C(=O)Nc2ncc(Cl)cc2Cl)cc1` (stereo not drawn) [Compound 132], with more than 75000 nM; and `Cc1cccc(-n2c(SC/C=C/c3ccccc3)nc3ccccc32)c1` [Compound 166], with more than 10000 nM.
The molecule `Cc1ccc(NC(=O)C(C)Sc2nc3cc(C)c(C)cc3n2Cc2ccc(F)cc2)c(Cl)c1` (stereo not drawn) [Compound 129] gave an EC50 of 2100 nM. This lies in the single-digit micromolar range.
In turn, `Cc1ccc(NC(=O)/C=C/c2nc3ccccc3n2-c2ccccc2)c(Cl)c1` [Compound 162] had an EC50 of more than 75000 nM.
Consider `Cc1ccc(NC(=O)CSc2nc3ccc(Br)cc3n2Cc2ccc(F)cc2)c(Cl)c1` [Compound 169], for which the EC50 is more than 75000 nM.
The same measure, in the same setting: the value for `COc1ccc(-n2c(/C=C/C(=O)Nc3ccc(C)cc3Cl)nc3ccccc32)cc1` [Compound 161] was more than 75000 nM; that for `COc1ccc(-n2c(SCC(=O)Nc3ccc(C)cc3Cl)nc3ccccc32)cc1` [Compound 140] was 1050 nM.
Still for that read-out and setting: the value for `COc1ccc(-n2c(SC(C)C(=O)N(C)c3ccc(Cl)cc3Cl)nc3ccccc32)cc1` (stereo not drawn) [Compound 149] was more than 75000 nM; that for `Cc1cc2nc(SC(C)C(=O)N(Cc3ccc(F)cc3)c3ncc(Cl)cc3Cl)n(Cc3ccc(F)cc3)c2cc1C` (stereo not drawn) [Compound 157] was more than 75000 nM; that for `Cc1ccc(NC(=O)C(C)(C)[S+]([O-])c2nc3ccccc3n2-c2ccccc2)c(Cl)c1` (stereo not drawn) [Compound 171] was more than 75000 nM.
`CCOC(=O)c1ccc2c(c1)nc(SC(C)C(=O)N(Cc1ccc(OC)cc1)c1ncc(Cl)cc1Cl)n2Cc1ccc(OC)cc1` (stereo not drawn) [Compound 134] showed an EC50 of more than 75000 nM.
In turn, `Cc1cc2nc(SC(C)C(=O)Nc3ncc(Cl)cc3Cl)[nH]c2cc1C` (stereo not drawn) [Compound 133] returned an EC50 of more than 75000 nM.

Still in this assay, the particulars now being: Table 1.
Regarding `COc1ccc(-n2c(SC(C)C(=O)Nc3ccc(Cl)c(C)c3)nc3ccccc32)cc1` (stereo not drawn) [Compound 40], a half-maximal response (EC50) required 6700 nM.
Consider `COc1ccc(-n2c(SC(C)C(=O)Nc3cccnc3)nc3ccccc32)cc1` (stereo not drawn) [Compound 23], for which a half-maximal response (EC50) required 8400 nM.
On the same count and under the same terms, then `COc1ccc(-n2c(SC(C)C(=O)Nc3nccc(C)n3)nc3ccccc32)cc1` (stereo not drawn) [Compound 11], with 600 nM.
The same measure, in the same setting: then `COc1ccc(-n2c(SC(C)C(=O)Nc3nc(C)cc(Cl)n3)nc3ccccc32)cc1` (stereo not drawn) [Compound 7], with more than 150000 nM.
For `COc1ccc(-n2c(SC(C)C(=O)Nc3ccc(C)c(N)c3)nc3ccccc32)cc1` (stereo not drawn) [Compound 16], the concentration for a half-maximal effect (EC50) was determined as 2300 nM. In other words, the single-digit micromolar range.
For `COc1ccc(-n2c(SC(C)C(=O)Nc3ncc(Cl)cc3Cl)nc3ccccc32)cc1` (stereo not drawn) [Compound 1], the concentration giving a half-maximal response (EC50) was determined as 300 nM. Against the preceding molecule, the EC50 is about 7.7-fold lower.
Still for that read-out and setting: then `COc1ccc(-n2c(SC(C)C(=O)Nc3cc(C)on3)nc3ccccc32)cc1` (stereo not drawn) [Compound 55], with 490 nM.
Same read-out and setting: the value for `COc1ccc(-n2c(SC(C)C(=O)Nc3cc(OC)cc(OC)c3)nc3ccccc32)cc1` (stereo not drawn) [Compound 13] was more than 75000 nM; that for `COc1ccc(-n2c(SC(C)C(=O)Nc3ccncc3)nc3ccccc32)cc1` (stereo not drawn) [Compound 42] was more than 75000 nM; that for `COc1ccc(-n2c(SC(C)C(=O)Nc3c(C)cccc3Cl)nc3ccccc32)cc1` (stereo not drawn) [Compound 39] was 3900 nM.
As to `COc1ccc(-n2c(SC(C)C(=O)Nc3ccc(N)cc3C)nc3ccccc32)cc1` (stereo not drawn) [Compound 52], the EC50 is more than 9300 nM.
Still for that read-out and setting: then `COc1ccc(-n2c(SC(C)C(=O)Nc3nc(C)c(Cl)cc3Cl)nc3ccccc32)cc1` (stereo not drawn) [Compound 43], with 300 nM; and `COc1ccc(-n2c(SC(C)C(=O)NC3CCCCC3)nc3ccccc32)cc1` (stereo not drawn) [Compound 9], with more than 75000 nM.
The same measure, in the same setting: then `COc1ccc(-n2c(SC(C)C(=O)Nc3nc(Cl)ccc3Cl)nc3ccccc32)cc1` (stereo not drawn) [Compound 4], with 300 nM; and `COc1ccc(-n2c(SC(C)C(=O)Nc3ccc(C)cn3)nc3ccccc32)cc1` (stereo not drawn) [Compound 24], with 500 nM.
Still for that read-out and setting: the value for `COc1ccc(-n2c(SC(C)C(=O)Nc3ccc(Cl)cc3C)nc3ccccc32)cc1` (stereo not drawn) [Compound 20] was 1400 nM.
The molecule `COc1ccc(-n2c(SC(C)C(=O)Nc3cc(Cl)nc(Cl)c3)nc3ccccc32)cc1` (stereo not drawn) [Compound 22] showed an EC50 of more than 75000 nM.
`COc1ccc(-n2c(SC(C)C(=O)Nc3ccc(Cl)cc3Cl)nc3ccccc32)cc1` (stereo not drawn) [Compound 12]: the EC50 came to 400 nM. That is a sub-micromolar value.
On the same count and under the same terms, then `COc1ccc(-n2c(SC(C)C(=O)Nc3nc(Cl)cc(OC)n3)nc3ccccc32)cc1` (stereo not drawn) [Compound 27], with more than 75000 nM.
Still for that read-out and setting: then `COc1ccc(-n2c(SC(C)C(=O)Nc3cc(Cl)ccc3Cl)nc3ccccc32)cc1` (stereo not drawn) [Compound 46], with 500 nM; and `COc1ccc(-n2c(SC(C)C(=O)Nc3nc(C)c(C)s3)nc3ccccc32)cc1` (stereo not drawn) [Compound 54], with 2500 nM; and `COc1ccc(-n2c(SC(C)C(=O)Nc3cccc(N)c3)nc3ccccc32)cc1` (stereo not drawn) [Compound 51], with 7000 nM.

Staying with this assay, now noted: Table 2.
In turn, `Cc1ccc(NC(=O)C(C)Sc2nc3ccccc3n2-c2ccc(OCC#N)cc2)c(Cl)c1` (stereo not drawn) [Compound 57] showed an EC50 of 700 nM.
`Cc1ccc(NC(=O)C(C)Sc2nc3ccccc3n2-c2ccc(C(=O)O)cc2)c(Cl)c1` (stereo not drawn) [Compound 97] came in with an EC50 of more than 75000 nM.
Same read-out and setting: then `COc1ccc(Cn2c(SC(C)C(=O)Nc3ccc(C)cc3Cl)nc3ccccc32)cc1` (stereo not drawn) [Compound 85], with 400 nM.
The molecule `COc1cccc(-n2c(SC(C)C(=O)Nc3ccc(C)cc3Cl)nc3ccccc32)c1` (stereo not drawn) [Compound 71] came in with an EC50 of 600 nM.
Still for that read-out and setting: the value for `Cc1ccc(NC(=O)C(C)Sc2nc3ccccc3n2-c2cccc(C(=O)O)c2)c(Cl)c1` (stereo not drawn) [Compound 82] was more than 75000 nM; that for `Cc1ccc(NC(=O)C(C)Sc2nc3ccccc3n2C2CCCCC2)c(Cl)c1` (stereo not drawn) [Compound 88] was 290 nM.
The molecule `CNCCc1ccc(-n2c(SC(C)C(=O)Nc3ccc(C)cc3Cl)nc3ccccc32)cc1` (stereo not drawn) [Compound 66] came in with an EC50 of 8700 nM.
Same read-out and setting: then `Cc1ccc(NC(=O)C(C)Sc2nc3ccccc3n2-c2ccc(N(C)CCN(C)C)cc2)c(Cl)c1` (stereo not drawn) [Compound 60], with 2900 nM; and `CCOc1ccc(-n2c(SC(C)C(=O)Nc3ccc(C)cc3Cl)nc3ccccc32)cc1` (stereo not drawn) [Compound 73], with 50 nM.
Same read-out and setting: then `Cc1ccc(NC(=O)C(C)Sc2nc3ccccc3n2Cc2ccccc2)c(Cl)c1` (stereo not drawn) [Compound 74], with 500 nM.
On the same count and under the same terms, then `Cc1ccc(NC(=O)C(C)Sc2nc3ccccc3n2C2CCN(C)CC2)c(Cl)c1` (stereo not drawn) [Compound 94], with 1500 nM.
Molecule `Cc1ccc(NC(=O)C(C)Sc2nc3ccccc3n2-c2cccc(CN3CCOCC3)c2)c(Cl)c1` (stereo not drawn) [Compound 83] returned an EC50 of 270 nM.
Still for that read-out and setting: then `Cc1ccc(NC(=O)C(C)Sc2nc3ccccc3n2-c2ccc(N3CCOCC3)cc2)c(Cl)c1` (stereo not drawn) [Compound 84], with 300 nM; and `Cc1ccc(NC(=O)C(C)Sc2nc3ccccc3n2-c2ccc(N)cc2)c(Cl)c1` (stereo not drawn) [Compound 78], with 1330 nM.
In turn, `Cc1ccc(NC(=O)C(C)Sc2nc3ccccc3n2-c2cccc(CO)c2)c(Cl)c1` (stereo not drawn) [Compound 80] showed an EC50 of 700 nM.
Same read-out and setting: the value for `Cc1ccc(NC(=O)C(C)Sc2nc3ccccc3n2-c2ccc(CC=O)cc2)c(Cl)c1` (stereo not drawn) [Compound 62] was 8500 nM; that for `Cc1ccc(NC(=O)C(C)Sc2nc3ccccc3n2C2CCN(C(=O)OC(C)(C)C)CC2)c(Cl)c1` (stereo not drawn) [Compound 93] was 600 nM.
In the case of `Cc1ccc(NC(=O)C(C)Sc2nc3ccccc3n2-c2ccc(NCCN(C)C)cc2)c(Cl)c1` (stereo not drawn) [Compound 59], the EC50 is 4200 nM.

The same assay, now with this note: Table 3.
With `Cc1cnc(NC(=O)C(C)Sc2nc3ccccc3n2-c2ccccc2)c(Cl)c1` (stereo not drawn) [Compound 109], the EC50 amounted to 130 nM. This counts as sub-micromolar.
As for `CC(Sc1nc2ccccc2n1-c1ccc(O)cc1)C(=O)Nc1ncc(Cl)cc1Cl` (stereo not drawn) [Compound 103], the EC50 turned out to be 7700 nM.
On the same count and under the same terms, the value for `CCOc1ccc(-n2c(SC(C)C(=O)Nc3cc(C)cc(C)n3)nc3ccccc32)cc1` (stereo not drawn) [Compound 115] was 1500 nM; that for `COc1cc(OC)cc(-n2c(SC(C)C(=O)Nc3ncc(C)cc3Cl)nc3ccccc32)c1` (stereo not drawn) [Compound 118] was 800 nM.
Still for that read-out and setting: the value for `CC(Sc1nc2ccccc2n1C)C(=O)Nc1ncc(Cl)cc1Cl` (stereo not drawn) [Compound 113] was more than 10000 nM.

Still in this assay, the particulars now being: in our assays.
As for `O=C(CSc1nnc(Br)n1-c1ccc(C2CC2)c2ccccc12)Nc1ccc(C(=O)O)cc1Cl` [RDEA-806, 4-(2-((5-bromo-4-(4-cyclopropylnaphthalen-1-yl)-4H-1,2,4-triazol-3-yl)thio)acetamido)-3-chlorobenzoic acid, reference compound], the MeV inhibitory activity entry was “lacks MeV inhibitory activity”.
